Assay results published in paper PMC11731258, “The structural basis for high-affinity c-di-GMP binding to the GSPII-B domain of the traffic ATPase PilF from Thermus thermophilus” (The Journal of Biological Chemistry, 2024).
Where “and” joins values, the source holds several entries; their conditions need not be identical. Identical values can stand only once. Like-named read-outs stand apart in the source and are kept apart here.

Tests used:
[1] = biological target: T1, PilF1-482 (GSPII-A, -B, -C; lacks ATPase domain) (Thermus thermophilus, UniProt Q5SLC9); test: ITC binding to PilF1-482; settings: 20 °C; for Kd: pH 7.5, two-site model
T1 sequence (Q5SLC9 1-482): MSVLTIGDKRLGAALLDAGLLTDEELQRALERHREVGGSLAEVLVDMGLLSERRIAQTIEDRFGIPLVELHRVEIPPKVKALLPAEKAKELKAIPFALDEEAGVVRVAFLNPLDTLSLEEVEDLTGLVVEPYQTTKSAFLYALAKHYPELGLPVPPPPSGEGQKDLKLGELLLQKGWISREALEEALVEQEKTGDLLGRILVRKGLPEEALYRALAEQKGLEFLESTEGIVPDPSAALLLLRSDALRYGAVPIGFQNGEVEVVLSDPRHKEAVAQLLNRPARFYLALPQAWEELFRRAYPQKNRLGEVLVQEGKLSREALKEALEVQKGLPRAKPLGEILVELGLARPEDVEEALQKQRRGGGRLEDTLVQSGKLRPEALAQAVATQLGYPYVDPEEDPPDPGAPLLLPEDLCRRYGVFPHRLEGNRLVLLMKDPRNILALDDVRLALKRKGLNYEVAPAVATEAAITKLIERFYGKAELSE
Procedure: (§1) To assess the ligand-binding capabilities of the various PilF constructs, triplicates of ITC measurements were recorded for each construct. The measurements were carried out using a MicroCal ITC200 (Malvern Panalytical). All ITC experiments were conducted at 20 °C with 50 mM Tris-HCl pH 7.5, 200 mM sodium chloride, 1 mM β-mercaptoethanol as the sample buffer. All protein samples were extensively dialyzed against the sample buffer and the buffer used for dialysis was used to dilute protein and c-di-GMP samples in preparation for the ITC measurements. Each measurement was conducted using the following protocol. In total, 39.8 μl c-di-GMP were titrated to 270 μl protein in 20 separate injections in 180 s intervals with a stirring speed of 750 rpm. After an initial delay of 120 s, the first injection of 0.2 μl c-di-GMP with a duration of 0.4 s was followed by 19 injections of 2 μl with a duration of 4 s. During the measurement, the feedback mode was set to high and the reference power to 11 μcal s^−1. To optimize precision of the measurements, protein and c-di-GMP concentrations were adjusted to the binding capabilities of the respective constructs and ranged from 5 to 200 μM for protein and 50 to 2000 μM for c-di-GMP. All thermograms were processed using Origin 7.0 (OriginLab) using a one-site– or two-site–binding model dependent on the number of expected binding events.

[2] = biological target: T2, PilF159-302 (GSPII-B domain) (Thermus thermophilus, UniProt Q5SLC9); test: ITC binding to PilF159-302; settings: for N / ΔH / ΔS / Kd: ITC
T2 sequence (Q5SLC9 159-302): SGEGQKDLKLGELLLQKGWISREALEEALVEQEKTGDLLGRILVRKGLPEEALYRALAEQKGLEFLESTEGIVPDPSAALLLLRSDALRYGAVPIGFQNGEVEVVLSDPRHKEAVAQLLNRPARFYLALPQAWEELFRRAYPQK
Procedure: as §1, with “All ITC experiments were conducted at 20 °C with 50 mM Tris-HCl pH 7.5, 200 mM sodium chloride, 1 mM β-mercaptoethanol as the sample buffer.” left out

[3] = biological target: T3, PilF159-302 K167L (Thermus thermophilus, UniProt Q5SLC9, K167L); test: ITC binding to PilF159-302 K167L; settings: 20 °C
T3 sequence (Q5SLC9 159-302 K167L): T2 sequence (Q5SLC9 159-302)
Procedure: as §1

[4] = biological target: T4, PilF159-302 D266A (Thermus thermophilus, UniProt Q5SLC9, D266A); test: ITC binding to PilF159-302 D266A; settings: 20 °C
T4 sequence (Q5SLC9 159-302 D266A): T2 sequence (Q5SLC9 159-302)
Procedure: as §1

[5] = biological target: T5, PilF159-302 Q190E (Thermus thermophilus, UniProt Q5SLC9, Q190E); test: ITC binding to PilF159-302 Q190E; settings: 20 °C
T5 sequence (Q5SLC9 159-302 Q190E): T2 sequence (Q5SLC9 159-302)
Procedure: as §1

[6] = biological target: T6, PilF159-302 Q218E (Thermus thermophilus, UniProt Q5SLC9, Q218E); test: ITC binding to PilF159-302 Q218E; settings: 20 °C
T6 sequence (Q5SLC9 159-302 Q218E): T2 sequence (Q5SLC9 159-302)
Procedure: as §1

[7] = biological target: T7, PilF159-302 K167R+E170D (Thermus thermophilus, UniProt Q5SLC9, E170D/K167R); test: ITC binding to PilF159-302 K167R-E170D; settings: 20 °C
T7 sequence (Q5SLC9 159-302 K167R/E170D): T2 sequence (Q5SLC9 159-302)
Procedure: as §1

[8] = biological target: MshEN (N-terminal domain of ATPase MshE); design: method as in PMID 27578558; settings: full length MshEN; cited from earlier work
[9] = biological target: PilB2; design: method as in PMID 27578558, PMID 31868878; settings: cited from earlier work
[10] = biological target: PilB; design: method as in PMID 27578558, PMID 31868878; settings: cited from earlier work

**Q.** For `Nc1nc2c(ncn2[C@@H]2O[C@@H]3COP(=O)(O)O[C@H]4[C@@H](O)[C@H](n5cnc6c(=O)[nH]c(N)nc65)O[C@@H]4COP(=O)(O)O[C@H]3[C@H]2O)c(=O)[nH]1` [c-di-GMP, cyclic dimeric guanosine monophosphate], which “N, site 1” value ([1]; Table S1 site 1) is on record?
**A.** 0.98 ± 0.04

**Q.** What about the “ΔH, site 1” value ([1]; Table S1 site 1) of the same compound?
**A.** -12.793 ± 0.095 kcal/mol

**Q.** And the “ΔS, site 1” value ([1]; Table S1 site 1)?
**A.** -14.6 ± 0.2 cal/mol/deg

**Q.** And the “N, site 2” value ([1]; Table S1 site 2)?
**A.** 0.85 ± 0.03

**Q.** What about the “ΔH, site 2” value ([1]; Table S1 site 2) of the same compound?
**A.** -17.536 ± 0.128 kcal/mol

**Q.** What about the “ΔS, site 2” value ([1]; Table S1 site 2) of the same compound?
**A.** -24.3 ± 0.3 cal/mol/deg

**Q.** And the Kd ([1]; read-out: KD, high-affinity site (KD1 in text; site 2 in Table S1))?
**A.** 17 ± 1 nM

**Q.** What about the Kd ([1]; read-out: KD, low-affinity site (KD2 in text; site 1 in Table S1)) of the same compound?
**A.** 461 ± 36 nM

**Q.** And the “fold higher affinity than MshEN” value ([2]; GSPII-B (KD 6 nM) vs MshEN (KD 500 nM))?
**A.** 83 fold

**Q.** And the N ([2]; 20 °C)?
**A.** 0.66 ± 0.02

**Q.** What about the ΔH ([2]; 20 °C) of the same compound?
**A.** -10.795 ± 1.145 kcal/mol

**Q.** What about the ΔS ([2]; 20 °C) of the same compound?
**A.** -0.8 ± 4.0 cal/mol/deg

**Q.** What about the N ([2]; 45 °C) of the same compound?
**A.** 0.88 ± 0.11

**Q.** What about the ΔH ([2]; 45 °C) of the same compound?
**A.** -13.327 ± 1.389 kcal/mol

**Q.** What about the ΔS ([2]; 45 °C) of the same compound?
**A.** -6.6 ± 4.2 cal/mol/deg

**Q.** And the Kd ([2]; 20 °C, pH 7.5)?
**A.** 6 nM

**Q.** And the Kd ([2]; 45 °C)?
**A.** 20 nM

**Q.** What about the “increase in the free enthalpy of binding compared to MshEN” value ([2]; at 20 °C) of the same compound?
**A.** ~2.7 kcal/mol

**Q.** What about the N [3] of the same compound?
**A.** 0.76 ± 0.10

**Q.** And the ΔH [3]?
**A.** -10.241 ± 0.494 kcal/mol

**Q.** What about the ΔS [3] of the same compound?
**A.** 5.4 ± 1.4 cal/mol/deg

**Q.** And the Kd ([3]; pH 7.5)?
**A.** 2 ± 0.3 nM

**Q.** And the N [4]?
**A.** 0.95 ± 0.05

**Q.** And the ΔH [4]?
**A.** -9.995 ± 0.161 kcal/mol

**Q.** What about the ΔS [4] of the same compound?
**A.** 0.6 ± 0.4 cal/mol/deg

**Q.** And the Kd ([4]; pH 7.5)?
**A.** 27 ± 2 nM

**Q.** What about the N [5] of the same compound?
**A.** 1.11 ± 0.03

**Q.** What about the ΔH [5] of the same compound?
**A.** -3.389 ± 0.156 kcal/mol

**Q.** What about the ΔS [5] of the same compound?
**A.** 15.4 ± 0.4 cal/mol/deg

**Q.** And the Kd ([5]; pH 7.5)?
**A.** 950 ± 7 nM

**Q.** And the N [6]?
**A.** 1.26 ± 0.06

**Q.** What about the ΔH [6] of the same compound?
**A.** -5.312 ± 0.34 kcal/mol

**Q.** What about the ΔS [6] of the same compound?
**A.** 10.9 ± 1.0 cal/mol/deg

**Q.** And the Kd ([6]; pH 7.5)?
**A.** 460 ± 28 nM

**Q.** What about the N [7] of the same compound?
**A.** 0.76 ± 0.03

**Q.** And the ΔH [7]?
**A.** -12.843 ± 0.363 kcal/mol

**Q.** What about the ΔS [7] of the same compound?
**A.** -11.6 ± 1.3 cal/mol/deg

**Q.** And the Kd ([7]; pH 7.5)?
**A.** 92 ± 8 nM

**Q.** What about the Kd [8] of the same compound?
**A.** ~500 nM and 500 nM

**Q.** What about the Kd [9] of the same compound?
**A.** 13.5 nM

**Q.** And the Kd [10]?
**A.** 53 nM
